Assays:
MDA-MB-231 cells [1] = assay: Apoptosis analysis by annexin V-FITC/PI staining (flow cytometry); format: cell-based, human; conditions: 48 h; for apoptotic ratio: control 13.7%
Protocol: Apoptosis induced by TMPH compound 12–9 was evaluated by annexin V-FITC/PI staining. Briefly, MDA-MB-231 cells in the logarithmic growth phase were cultured in a six-well plate and incubated for 24 h at 37°C under a humid atmosphere containing 5% CO2. […] The incubated cells were washed twice with PBS, digested by trypsin, and centrifuged at 1,000 rpm for 5 min. The collected MDA-MB-231 cells were transferred to a 1.5-ml tube and resuspended in a solution of 200 μl of annexin V-FITC and 5 μl of PI. After incubation in a dark environment (covered with aluminum foil) for 15 min at room temperature, the collected cells were evaluated by flow cytometry (CyFlow®Cube 6, Sysmex). The apoptosis analysis data were shown as a pseudo color map and analyzed by FlowJo software.

MDA-MB-231 cells [2] = assay: Clonal formation assay of MDA-MB-231 cells; format: cell-based, human; conditions: 0.5, 1.0 and 2.0 μM for 10 days
Protocol: Human breast cancer MDA-MB-231 cells were cultured in a six-well plate with 1,500 cells per well and incubated for 24 h at 37°C under a humid atmosphere containing 5% CO2. Then, the MDA-MB-231 cells were incubated with compound 12–9 at final concentrations of 0, 0.5, 1.0, and 2.0 μM for 10 days. The treated cells were washed with PBS and fixed with 4% paraformaldehyde for 15 min at room temperature. Then, the end product of the cell colonies was visualized by staining with 0.1% crystal violet for 10 min. The images were photographed using a handy camera, and the number of cell colonies was assessed using open Image J software (National Institutes of Health). Each experiment was repeated three times. A group of >50 cells was defined as one colony formation.

MDA-MB-231 cells [3] = assay: Hoechst 33 342 staining of MDA-MB-231 cells; format: cell-based, human; conditions: 1.0 μM, 48 h
Protocol: The induction of apoptosis by compound 12–9 was visually evaluated in MDA-MB-231 cells by Hoechst 33 342 staining. The test cells were transferred to six-well plates at a density of 1 × 10^5 cells. […] Then, the MDA-MB-231 cells were stained with Hoechst 33 342 solution (10 μg/ml in the culture medium, Beyotime Institute of Biotechnology, Shanghai, China) at 37°C in a dark room for 20 min after incubation with the test compound 12–9. The cells were then washed twice with a serum-free medium to remove the leftover dye. The apoptotic cells stained by Hoechst 33 342 were imaged using CLSM (Carl-Zeiss LSM 710).

[4] = system: human breast cancer MDA-MB-231; assay: MTT antiproliferative assay, MDA-MB-231; format: cell-based; conditions: for IC50: Homo sapiens, MDA-MB-231, MTT, 48 h, 0–50 μM, read-out: Antiproliferative activity IC50 ± SEM, MDA-MB-231; for SI, selectivity index: SI = IC50 (L929)/IC50 (MDA-MB-231)
Protocol: (§1) The in vitro antiproliferative activity of 33 TMPH compounds was evaluated by MTT assay ([Medica et al., 2022]). Five types of TNBC-related cell lines (human breast cancer MCF-7 and MDA-MB-231, mouse breast cancer 4T1, mouse fibroblast L929, and human umbilical vein endothelial HUVEC cell lines) were used. The cell lines were obtained from the Shanghai Institute of Biochemistry and Cell Biology of the Chinese Academy of Sciences (Shanghai, China). The cell lines were cultured in DMEM supplemented with 1% penicillin–streptomycin solution (100×) and 10% FBS at 37°C under a humid atmosphere containing 5% CO2. After cell passage, cryopreservation, and resuscitation, the growth-inhibitory effects against the five cell lines were determined by MTT assay. The 33 TMPH compounds and the reference control drug cisplatin were dissolved in 0.1% DMSO solution. The cell lines were maintained in 96-well plates and subjected to each test compound (0–50 μM) at 37°C for 48 h. After treatment with 1 mg/ml MTT solution for 4 h, the formazan crystals were dissolved in each well. A microplate reader (Varioskan Flash 3001, Thermo Scientific) was used to determine the cell viability at 490 nm, and each experiment was repeated four times. The collected data were expressed as the mean ± SEM. The inhibitory concentration of the 34 compounds at 50% (IC50) was calculated via concentration–inhibition relationship regression by SPSS software.

[5] = system: MCF-7, MDA-MB-231, 4T1, L929 and HUVEC cell lines; assay: MTT antiproliferative assay, statements over all five tested cell lines; format: cell-based; conditions: range over all five tested cell lines, read-out: IC50 values ranging over the tested cell lines
Protocol: as §1

mouse fibroblast L929 = assay: MTT antiproliferative assay, L929; format: cell-based; conditions: Mus musculus, L929, 48 h, 0–50 μM, read-out: Antiproliferative activity IC50 ± SEM, L929
Protocol: as §1

mouse breast cancer 4T1 = assay: MTT antiproliferative assay, 4T1; format: cell-based; conditions: Mus musculus, 48 h, 0–50 μM, read-out: Antiproliferative activity IC50 ± SEM, 4T1
Protocol: as §1

[6] = system: human breast cancer MCF-7; assay: MTT antiproliferative assay, MCF-7; format: cell-based; conditions: Homo sapiens, MCF7, 48 h, 0–50 μM, read-out: Antiproliferative activity IC50 ± SEM, MCF-7
Protocol: as §1

[7] = system: human umbilical vein endothelial HUVEC; assay: MTT antiproliferative assay, HUVEC; format: cell-based; conditions: Homo sapiens, HUVEC, 48 h, 0–50 μM, read-out: Antiproliferative activity IC50 ± SEM, HUVEC
Protocol: as §1

Row | SMILES | IC50 [4] [µM] | SI, selectivity index [4] | IC50 [5] [µM] | IC50 (mouse fibroblast L929) [µM] | IC50 (mouse breast cancer 4T1) [µM] | IC50 [6] [µM] | IC50 [7] [µM] | also measured
1 | Cc1nc(C)c(C(=O)NCCCCCCCCCCCCNC(=O)c2ccc3cc[nH]c3c2)nc1C [12–9] | 0.84 ± 0.02 | 3.76 | 1.61 to 19.5 | 3.16 ± 0.13 | 1.16 ± 0.18 | 1.11 ± 0.15 | 3.82 ± 0.24 | Q1, necrotic cells (annexin V−/PI+) (MDA-MB-231 cells [1]; 0.5 μM): 0.20; Q2, late apoptotic or necrotic cells (annexin V+/PI+) (MDA-MB-231 cells [1]; 0.5 μM): 15.2; Q3, early apoptotic cells (annexin V+/PI−) (MDA-MB-231 cells [1]; 0.5 μM): 8.76; Q4, living cells (annexin V−/PI−) (MDA-MB-231 cells [1]; 0.5 μM): 75.9; apoptotic ratio (MDA-MB-231 cells [1]; 0.5 μM): 23.96%; Q1, necrotic cells (annexin V−/PI+) (MDA-MB-231 cells [1]; 1.0 μM): 0.37; Q2, late apoptotic or necrotic cells (annexin V+/PI+) (MDA-MB-231 cells [1]; 1.0 μM): 24.8; Q3, early apoptotic cells (annexin V+/PI−) (MDA-MB-231 cells [1]; 1.0 μM): 7.84; Q4, living cells (annexin V−/PI−) (MDA-MB-231 cells [1]; 1.0 μM): 67.0; apoptotic ratio (MDA-MB-231 cells [1]; 1.0 μM): 32.64%; Q1, necrotic cells (annexin V−/PI+) (MDA-MB-231 cells [1]; 2.0 μM): 1.03; Q2, late apoptotic or necrotic cells (annexin V+/PI+) (MDA-MB-231 cells [1]; 2.0 μM): 35.3; Q3, early apoptotic cells (annexin V+/PI−) (MDA-MB-231 cells [1]; 2.0 μM): 11.6; Q4, living cells (annexin V−/PI−) (MDA-MB-231 cells [1]; 2.0 μM): 52.1; apoptotic ratio (MDA-MB-231 cells [1]; 2.0 μM): 46.9%; colony formation versus untreated control (MDA-MB-231 cells [2]): significantly fewer and smaller; apoptotic morphology, Hoechst 33 342 staining (MDA-MB-231 cells [3]): appeared shrunken and showed strong blue fluorescence
2 | Cc1nc(C)c(C(=O)NCCCCCCCCNC(=O)c2cc3ccccc3s2)nc1C [8–3] | 3.39 ± 0.12 | 1.22 | 1.61 to 19.5 | 4.12 ± 0.32 | 19.5 ± 0.45 | 4.15 ± 0.02 | 9.78 ± 0.05 | –
3 | Cc1nc(C)c(C(=O)NCCCCCCCCCCCCNC(=O)c2cc3ccccc3s2)nc1C [12–3] | 2.12 ± 0.06 | 3.61 | 1.61 to 19.5 | 7.65 ± 0.06 | 5.13 ± 0.28 | 3.26 ± 0.16 | 7.86 ± 0.01 | –

From article PMC9358002, “Synthesis and Discovery of Ligustrazine–Heterocycle Derivatives as Antitumor Agents” (Frontiers in Chemistry, 2022)
